From patent US10080743B2, “Isoxazole derivatives as FXR agonists and methods of use thereof” (Enanta Pharmaceuticals, Inc., priority 2016, dated 2018)

Molecular target: T1, human FXR (NR1H4) (Homo sapiens, UniProt Q96RI1)
T1 construct: host or cells: CHO (Chinese hamster ovary) cells
T1 sequence (Q96RI1 1-486): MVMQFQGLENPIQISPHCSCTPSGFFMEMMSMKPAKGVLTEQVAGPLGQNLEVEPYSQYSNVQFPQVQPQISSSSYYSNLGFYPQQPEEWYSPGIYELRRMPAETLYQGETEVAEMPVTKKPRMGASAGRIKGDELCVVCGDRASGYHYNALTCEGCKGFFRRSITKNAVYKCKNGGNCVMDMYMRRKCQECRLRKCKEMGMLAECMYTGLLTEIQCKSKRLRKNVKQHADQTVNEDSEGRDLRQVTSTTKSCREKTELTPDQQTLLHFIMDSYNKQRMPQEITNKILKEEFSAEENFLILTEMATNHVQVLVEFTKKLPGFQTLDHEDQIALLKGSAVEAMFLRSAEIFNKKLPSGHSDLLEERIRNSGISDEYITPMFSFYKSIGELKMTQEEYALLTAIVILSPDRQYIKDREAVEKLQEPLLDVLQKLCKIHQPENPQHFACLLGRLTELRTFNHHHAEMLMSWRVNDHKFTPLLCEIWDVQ
Test: Human FXR (NR1H4) Assay (Gal4 promoter driven luciferase reporter transactivation, Indigo Bioscience kit IB00601)
Assay type: cell-based
Settings: for EC50: Human FXR (NR1H4) reporter assay, CHO cells expressing human NR1H4, potency ranges; for Efficacy (%): efficacy normalized to CDCA set as 100%
Description: Human FXR (NR1H4) Assay Determination of a ligand mediated Gal4 promoter driven transactivation to quantify ligand binding mediated activation of FXR. FXR Reporter Assay kit purchased from Indigo Bioscience (Catalogue number: IB00601) to determine the potency and efficacy of compound developed by Enanta that can induce FXR activation. The principle application of this reporter assay system is to quantify functional activity of human FXR. The assay utilizes non-human mammalian cells, CHO (Chinese hamster ovary) cells engineered to express human NR1H4 protein (referred to as FXR). Reporter cells also incorporate the cDNA encoding beetle luciferase which catalyzes the substrates and yields photon emission. Luminescence intensity of the reaction is quantified using a plate-reading luminometer, Envision. Reporter Cells include the luciferase reporter gene functionally linked to an FXR responsive promoter. Thus, quantifying changes in luciferase expression in the treated reporter cells provides a sensitive surrogate measure of the changes in FXR activity. […] The assay is according to the manufacturer's instructions. […] Retrieve Reporter Cells from −80° C. storage. Perform a rapid thaw of the frozen cells by transferring a 10 ml volume of 37° C. cell recovery medium into the tube of frozen cells. Recap the tube of Reporter Cells and immediately place it in a 37° C. water bath for 5-10 minutes. Retrieve the tube of Reporter Cell Suspension from the water bath. Sanitize the outside surface of the tube with a 70% alcohol swab, and then transfer it into the cell culture hood. Dispense 90 μl of cell suspension into each well of the 96-well Assay Plate. Transfer the plate into 37° C. incubator, allowing the cells adherent to the bottom of the well. Dilute compounds in Dilution Plate (DP), and administrate to cells at Assay Plate (AP). DMSO content of the samples was kept at 0.2%. Cells were incubated for additional 22 hours before luciferase activities were measured. Thirty minutes before intending to quantify FXR activity, remove Detection Substrate and Detection Buffer from the refrigerator and place them in a low-light area so that they may equilibrate to room temperature. Remove the plate's lid and discard all media contents by ejecting it into an appropriate waste container. Gently tap the inverted plate onto a clean absorbent paper towel to remove residual droplets. Cells will remain tightly adhered to well bottoms. Add 100 μl of luciferase detection reagent to each well of the assay plate. Allow the assay plate to rest at room temperature for at least 5 minutes following the addition of LDR. Set the instrument (Envision) to perform a single 5 second “plate shake” prior to reading the first assay well. Read time may be 0.5 second (500 mSec) per well.

Compound	EC50 [nM]	Efficacy (%)
CC(C)c1onc(-c2c(Cl)cccc2Cl)c1COc1ccc(-c2ccc3c(NC(=O)NS(=O)(=O)C4CC4)cccc3c2)cc1 [Compound 11]	100 to 1000	1.2
CC(C)c1onc(-c2c(Cl)cccc2Cl)c1COc1ccc(-c2ccc3c(NC(=O)NS(=O)(=O)c4ccccc4)cccc3c2)cc1 [Compound 16]	100 to 1000	117
CC(C)c1onc(-c2c(Cl)cccc2Cl)c1COc1ccc(-c2ccc3c(C(=O)NS(=O)(=O)N(C)C)cccc3c2)cc1 [Compound 90]	100 to 1000	1.3
CC(C)c1onc(-c2c(Cl)cccc2Cl)c1COc1ccc(-c2ccc3c(C(=O)O)cccc3c2)cc1 [Compound (1), reference compound]	100 to 1000	220
